Literature values as cited in publication PMC7259638, “Characterization of the intestinal absorption of morroniside from Cornus officinalis Sieb. et Zucc via a Caco-2 cell monolayer model” (PLoS ONE, 2020).

Tested on: Caco-2 cell model
Set-up: method as in PMID 30671130
Settings: cited from earlier work

COC(=O)C1=CO[C@@H](O[C@@H]2O[C@H](CO)[C@@H](O)[C@H](O)[C@H]2O)[C@@H]2[C@@H](C)[C@@H](O)C[C@H]12 [loganin]
intestinal permeability (in words) (human intestinal Caco-2 cell model): good intestinal permeability | BCRP substrate status (previous study): substrate of BCRP
